Measurements from ChEMBL document CHEMBL1201862, “PubChem BioAssay data set” (2004).
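A five-concentration, 48-hour dose response in 96-well plates underlies each endpoint, interpolated linearly between surrounding concentrations. At the GI50, growth is halved.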 Calls of active or inactive are those of the source. Rule as the data show it: active = GI50 up to about 1.1 µM and inactive = higher.

Legend:
Test in all cases: growth of human tumour cells (NCI), 48 h
786-0 = system: 786-0
A549 = system: A549
ACHN = system: ACHN
CAKI-1 = system: CAKI-1
CCRF-CEM = system: CCRF-CEM
COLO 205 = system: COLO 205
DLD-1 = system: DLD-1
DMS-114 = system: DMS-114
EKVX = system: EKVX
HCC 2998 = system: HCC 2998
HCT-116 = system: HCT-116
HCT-15 = system: HCT-15
HL-60 = system: HL-60
HOP-18 = system: HOP-18
HOP-62 = system: HOP-62
HOP-92 = system: HOP-92
HT-29 = system: HT-29
IGROV-1 = system: IGROV-1
K562 = system: K562
KM-20L2 = system: KM-20L2
KM12 = system: KM12
LOX IMVI = system: LOX IMVI
LXFL 529 = system: LXFL 529
M14 = system: M14
M19-MEL = system: M19-MEL
MOLT-4 = system: MOLT-4
Malme-3M = system: Malme-3M
NCI-H226 = system: NCI-H226
NCI-H23 = system: NCI-H23
NCI-H460 = system: NCI-H460
OVCAR-3 = system: OVCAR-3
OVCAR-4 = system: OVCAR-4
OVCAR-5 = system: OVCAR-5
OVCAR-8 = system: OVCAR-8
RPMI-8226 = system: RPMI-8226
RXF 393 = system: RXF 393
SF-268 = system: SF-268
SF-295 = system: SF-295
SF-539 = system: SF-539
SK-MEL-28 = system: SK-MEL-28
SK-MEL-2 = system: SK-MEL-2
SK-MEL-5 = system: SK-MEL-5
SK-OV-3 = system: SK-OV-3
SN12C = system: SN12C
SNB-78 = system: SNB-78
SR = system: SR
SW-620 = system: SW-620
TK-10 = system: TK-10
U-251 = system: U-251
UACC-257 = system: UACC-257
UACC-62 = system: UACC-62
UO-31 = system: UO-31
XF498 = system: XF498
A498 = system: A498
DMS-273 = system: DMS-273
SNB-19 = system: SNB-19
SNB-75 = system: SNB-75
DU-145 = system: DU-145
Hs-578T = system: Hs-578T
MCF7 = system: MCF7
MDA-MB-231 = system: MDA-MB-231
MDA-MB-435 = system: MDA-MB-435
MDA-N = system: MDA-N
NCI-H522 = system: NCI-H522
NCI/ADR-RES = system: NCI/ADR-RES
PC-3 = system: PC-3
T47D = system: T47D

Measured: GI50

NCCNCCNCc1c2ccccc2c(CNCCNCCN)c2ccccc12
inactive: 786-0 38.6 µM | A549 79.3 µM | ACHN > 100 µM | CAKI-1 > 100 µM | CCRF-CEM 78.5 µM | COLO 205 52.1 µM | DLD-1 > 100 µM | DMS-114 46.9 µM | EKVX > 100 µM | HCC 2998 54 µM | HCT-116 38 µM | HL-60 46.1 µM | HOP-18 49.8 µM | HOP-62 60.3 µM | HOP-92 22.3 µM | HT-29 40.2 µM | IGROV-1 75 µM | K562 25.4 µM | KM-20L2 41.4 µM | KM12 40.4 µM | LOX IMVI 70.6 µM | LXFL 529 57.8 µM | M14 > 100 µM | M19-MEL 59 µM | MOLT-4 36.5 µM | Malme-3M 84.9 µM | NCI-H226 50.1 µM | NCI-H23 > 100 µM | NCI-H460 31.2 µM | OVCAR-3 > 100 µM | OVCAR-4 41.6 µM | OVCAR-5 > 100 µM | OVCAR-8 47.9 µM | RPMI-8226 29.6 µM | RXF 393 40.9 µM | SF-268 69.5 µM | SF-295 41.4 µM | SF-539 37.5 µM | SK-MEL-28 > 100 µM | SK-MEL-2 > 100 µM | SK-MEL-5 > 100 µM | SK-OV-3 > 100 µM | SN12C 58.2 µM | SNB-78 98.6 µM | SR 31.3 µM | SW-620 90.4 µM | TK-10 > 100 µM | U-251 51.6 µM | UACC-257 > 100 µM | UACC-62 34 µM | UO-31 > 100 µM | XF498 72.9 µM
> 100 µM: HCT-15

Sc1nnc(COc2ccc(Cl)cc2Cl)[nH]1
inactive: 786-0 > 100 µM | A498 > 100 µM | A549 > 100 µM | ACHN > 100 µM | CAKI-1 > 100 µM | CCRF-CEM > 100 µM | DLD-1 > 100 µM | DMS-114 > 100 µM | DMS-273 > 100 µM | EKVX > 100 µM | HCC 2998 > 100 µM | HCT-116 > 100 µM | HL-60 26.4 µM | HOP-92 > 100 µM | HT-29 > 100 µM | IGROV-1 > 100 µM | K562 > 100 µM | KM-20L2 > 100 µM | LOX IMVI > 100 µM | LXFL 529 > 100 µM | M14 > 100 µM | M19-MEL > 100 µM | MOLT-4 > 100 µM | Malme-3M > 100 µM | NCI-H226 > 100 µM | NCI-H23 > 100 µM | NCI-H460 > 100 µM | OVCAR-3 > 100 µM | OVCAR-4 > 100 µM | OVCAR-5 > 100 µM | OVCAR-8 > 100 µM | RPMI-8226 > 100 µM | RXF 393 > 100 µM | SF-268 > 100 µM | SF-295 > 100 µM | SF-539 > 100 µM | SK-MEL-28 > 100 µM | SK-MEL-2 > 100 µM | SK-MEL-5 > 100 µM | SN12C > 100 µM | SNB-19 > 100 µM | SNB-75 > 100 µM | SNB-78 > 100 µM | SR > 100 µM | SW-620 > 100 µM | TK-10 > 100 µM | U-251 > 100 µM | UACC-257 > 100 µM | UACC-62 > 100 µM | UO-31 > 100 µM | XF498 > 100 µM
> 100 µM: HCT-15

Clc1cccc(C2N3CCCCC3[C@@H]3c4[nH]c5ccccc5c4CCN23)c1 (stereo partly drawn)
inactive: 786-0 32.6 µM | A498 31.2 µM | A549 43.9 µM | ACHN 24.2 µM | CAKI-1 45 µM | CCRF-CEM 19.4 µM | DLD-1 30.3 µM | DMS-114 20.6 µM | DMS-273 30.1 µM | EKVX 56 µM | HCC 2998 31.9 µM | HCT-116 17.1 µM | HL-60 18.7 µM | HOP-18 > 100 µM | HOP-62 46.9 µM | HOP-92 62.5 µM | HT-29 18.2 µM | IGROV-1 50.8 µM | K562 23.1 µM | KM-20L2 56.8 µM | M14 27.9 µM | M19-MEL 20.1 µM | MOLT-4 23.1 µM | Malme-3M 18.3 µM | NCI-H23 22 µM | NCI-H460 22.7 µM | OVCAR-3 34.8 µM | OVCAR-4 33.5 µM | OVCAR-5 21 µM | OVCAR-8 41.4 µM | RPMI-8226 29 µM | RXF 393 27 µM | SF-268 33.1 µM | SF-295 51.1 µM | SF-539 21.1 µM | SK-MEL-28 22.8 µM | SK-MEL-2 19.8 µM | SK-MEL-5 18 µM | SK-OV-3 46.9 µM | SN12C 13.6 µM | SNB-19 55 µM | SNB-75 32.8 µM | SW-620 44.4 µM | TK-10 40.8 µM | U-251 29.2 µM | UACC-257 30.5 µM | UACC-62 15.6 µM | UO-31 24.9 µM | XF498 20.9 µM
48.2 µM: HCT-15

O=C1C(Cl)=C(N2CCN(CCOCCO)CC2)C(=O)c2ccccc21
11.9 µM: HCT-15
inactive: 786-0 11.7 µM | A498 18.5 µM | A549 18.7 µM | ACHN 7.36 µM | CAKI-1 15.7 µM | CCRF-CEM 2.33 µM | COLO 205 15.2 µM | DMS-273 16.9 µM | DU-145 19.2 µM | EKVX 18.4 µM | HCC 2998 18.2 µM | HCT-116 3.97 µM | HL-60 1.67 µM | HOP-18 16.3 µM | HOP-92 1.49 µM | HT-29 16 µM | Hs-578T 19.1 µM | IGROV-1 15.3 µM | K562 2.2 µM | KM-20L2 18 µM | KM12 16.3 µM | LOX IMVI 6.4 µM | LXFL 529 1.79 µM | M14 9.29 µM | M19-MEL 3.82 µM | MCF7 3.56 µM | MDA-MB-231 4.43 µM | MDA-MB-435 3.41 µM | MDA-N 2.18 µM | MOLT-4 2.05 µM | Malme-3M 6.07 µM | NCI-H226 16.6 µM | NCI-H23 13.6 µM | NCI-H460 17.9 µM | NCI-H522 1.77 µM | NCI/ADR-RES 12.2 µM | OVCAR-3 2.85 µM | OVCAR-4 2.19 µM | OVCAR-5 22.4 µM | OVCAR-8 14.9 µM | PC-3 18 µM | RPMI-8226 3.45 µM | RXF 393 3.13 µM | SF-268 16.4 µM | SF-295 18 µM | SF-539 18.9 µM | SK-MEL-28 17.3 µM | SK-MEL-2 8.89 µM | SK-MEL-5 14.7 µM | SK-OV-3 15.3 µM | SN12C 15.2 µM | SNB-19 23.8 µM | SNB-75 14.2 µM | SNB-78 15.3 µM | SR 2.72 µM | SW-620 1.72 µM | T47D 1.85 µM | TK-10 20.2 µM | U-251 17.3 µM | UACC-257 5.12 µM | UACC-62 6.32 µM | UO-31 7.73 µM | XF498 2.55 µM

CSC1(C)CC2C(CC1N1CCCCC1)C2(C)C (stereo not drawn)
inactive: 786-0 > 100 µM | A549 > 100 µM | ACHN > 100 µM | CCRF-CEM > 100 µM | COLO 205 > 100 µM | DLD-1 > 100 µM | DMS-273 > 100 µM | HCC 2998 > 100 µM | HCT-116 > 100 µM | HL-60 > 100 µM | HOP-18 > 100 µM | HOP-92 > 100 µM | HT-29 > 100 µM | IGROV-1 > 100 µM | K562 > 100 µM | KM12 > 100 µM | LXFL 529 > 100 µM | M14 > 100 µM | M19-MEL > 100 µM | MOLT-4 > 100 µM | Malme-3M > 100 µM | NCI-H226 > 100 µM | NCI-H23 > 100 µM | NCI-H460 > 100 µM | OVCAR-3 > 100 µM | OVCAR-4 > 100 µM | OVCAR-5 > 100 µM | OVCAR-8 > 100 µM | RPMI-8226 > 100 µM | SF-268 > 100 µM | SF-295 > 100 µM | SF-539 > 100 µM | SK-MEL-28 > 100 µM | SK-MEL-2 > 100 µM | SK-OV-3 > 100 µM | SN12C > 100 µM | SNB-75 > 100 µM | SNB-78 > 100 µM | TK-10 > 100 µM | U-251 > 100 µM | UACC-257 > 100 µM | UO-31 > 100 µM | XF498 > 100 µM
> 100 µM: HCT-15
